# Data reported in patent US20190388406A1, “METHODS OF PREVENTION AND TREATMENT OF THROMBOSIS” (Portola Pharmaceuticals, Inc., priority 2018, published 2019).
# What was measured:
# [1] = test system: critically ill patients admitted to the intensive care unit (ICU); test: Occurrence of VTE in critically ill (ICU) patients, post hoc analysis of randomized trial; assay type: in vivo, human
# Excerpt: (§1) A multi-center, double-blind, randomized controlled trial enrolled 7,513 patients hospitalized for an acute medical illness with the following eligibility criteria: (1) hospitalization for acute medical illness, including heart failure, respiratory failure, infection, ischemic stroke, or rheumatic disorder; (2) age≥75 years, age 60 to 74 years with D-dimer≥2×the upper limit of normal (ULN), or age 40 to 59 years with D-dimer≥2×ULN and history of VTE or cancer; (3) anticipated severe immobilization for ≥24 hours followed by moderate or severe immobilization for 3 or more days; and (4) anticipated hospitalization for 3 or more days. Patients were randomly allocated in a 1:1 ratio to extended-duration betrixaban (35 to 42 days) or standard-duration enoxaparin (10±4 days).
# (§2) The present study is a post hoc analysis of the effect of betrixaban in critically ill patients admitted to the intensive care unit (ICU) during the index hospitalization and received extended-duration betrixaban. The study population included in the present analysis was subjects admitted to the ICU during the index hospitalization event.
# (§3) The primary efficacy endpoint was the occurrence of VTE, defined as a composite of asymptomatic proximal DVT, symptomatic DVT, non-fatal pulmonary embolism (PE), or VTE-related mortality. Safety endpoints were the occurrence of major bleeding and clinically relevant non-major bleeding, defined according to the International Society on Thrombosis and Haemostasis (ISTH) criteria. (Schulman S, Kearon C, Subcommittee on Control of Anticoagulation of the S, Standardization Committee of the International Society on T, Haemostasis. Definition of major bleeding in clinical investigations of antihemostatic medicinal products in non-surgical patients. J Thromb Haemost. 2005; 3:692-694; and Kaatz S, Ahmad D, Spyropoulos AC, Schulman S, Subcommittee on Control of A. Definition of clinically relevant non-major bleeding in studies of anticoagulants in atrial fibrillation and venous thromboembolic disease in non-surgical patients: communication from the SSC of the ISTH. J Thromb Haemost. 2015; 13:2119-2126.) All events were adjudicated by an independent clinical events committee blinded to thromboprophylaxis allocation.
# (§4) Baseline characteristics of study participants were compared between treatment arms using the chi-squared test for categorical variables and one-way analysis of variance (ANOVA) for continuous variables, respectively. We analyzed efficacy using a modified intention-to-treat (mITT) population, which included subjects who received at least one dose of study medication and had data on one or more of the efficacy components. The bleeding risk of thromboprophylaxis was analyzed with the actual regimen received in the safety population, which included all randomized patients who received at least one dose of study medication. […] Absolute risk difference and relative risk of betrixaban vs. enoxaparin group were calculated and compared using the chi-squared test. The Breslow-Day test of homogeneity was performed to assess the effect modification by ICU admission on the thromboprophylaxis. All analyses were performed using two-sided tests at a significance level of 0.05 with SAS software version 9.4 (SAS Institute, Inc., North Carolina, United States).
# [2] = test system: non-critically ill patients; test: Occurrence of VTE in non-critically ill patients; assay type: in vivo, human
# Excerpt: as §1, with “Patients were randomly allocated in a 1:1 ratio to extended-duration betrixaban (35 to 42 days) or standard-duration enoxaparin (10±4 days).” left out
# as §4, with “The Breslow-Day test of homogeneity was performed to assess the effect modification by ICU admission on the thromboprophylaxis. All analyses were performed using two-sided tests at a significance level of 0.05 with SAS software version 9.4 (SAS Institute, Inc., North Carolina, United States).” left out
# [3] = Exposure of betrixaban on co-administration with a Pgp inhibitor; assay type: in vivo; conditions: concomitant Pgp inhibitor
# [4] = test system: non-critically ill patients; test: Occurrence of major bleeding in non-critically ill patients; assay type: in vivo
# Excerpt: as §1, with “Patients were randomly allocated in a 1:1 ratio to extended-duration betrixaban (35 to 42 days) or standard-duration enoxaparin (10±4 days).” left out
# as §4, with “The Breslow-Day test of homogeneity was performed to assess the effect modification by ICU admission on the thromboprophylaxis. All analyses were performed using two-sided tests at a significance level of 0.05 with SAS software version 9.4 (SAS Institute, Inc., North Carolina, United States).” left out
# [5] = test system: critically ill patients admitted to the intensive care unit (ICU); test: Occurrence of major or clinically relevant non-major bleeding (ISTH) in critically ill (ICU) patients; assay type: in vivo
# Excerpt: as §1, §2, §3, §4
# [6] = test system: critically ill patients admitted to the intensive care unit (ICU); test: Occurrence of major bleeding (ISTH) in critically ill (ICU) patients; assay type: in vivo
# Excerpt: as §1, §2, §3, §4
# [7] = full-dose stratum (betrixaban 80 mg daily vs. enoxaparin 40 mg daily), end of study through 77 days
# [8] = full-dose stratum (betrixaban 80 mg daily vs. enoxaparin 40 mg daily), end of study through 77 days, listed as betrixaban
# [9] = full-dose stratum (betrixaban 80 mg daily vs. enoxaparin 40 mg daily), through 42 days
# [10] = full-dose stratum, through 42 days
# [11] = full-dose stratum, through 77 days
# [12] = mITT population, end of extended thromboprophylaxis through 42 days
# [13] = mITT population, end of study through 77 days
# [14] = mITT population, through 42 days
# [15] = mITT population, through 77 days
# [16] = full-dose stratum (betrixaban 80 mg daily vs. enoxaparin 40 mg daily), through 7 days after discontinuation
# [17] = full-dose stratum (betrixaban 80 mg daily vs. enoxaparin 40 mg daily), through 7 days after discontinuation, listed as betrixaban
# [18] = full-dose stratum, through 7 days after discontinuation
# [19] = safety population, end of study through 77 days
# [20] = safety population, end of study through 77 days, listed as betrixaban
# [21] = safety population, through 7 days after discontinuation
# [22] = safety population, through 7 days after discontinuation of study medication
# [23] = safety population, through 7 days after discontinuation of study medication, listed as betrixaban
# [24] = safety population, through 77 days
molecule,measurement,setting,value
"COc1ccc(NC(=O)c2ccc(C(=N)N(C)C)cc2)c(C(=O)Nc2ccc(Cl)cn2)c1 [Betrixaban, N-(5-chloropyridin-2-yl)-2-(4-(N,N-dimethylcarbamimidoyl)benzamido)-5-methoxybenzamide]",reduction of the risk of VTE compared with enoxaparin,"[1]; critically ill patients, end of extended thromboprophylaxis through 42 days",46%
same,relative risk reduction of VTE compared with enoxaparin,"[1]; critically ill patients, end of study through 77 days",52%
same,"risk reduction in the VTE components (asymptomatic proximal DVT, symptomatic DVT, non-fatal PE, VTE-related death)","[1]; critically ill patients, vs. enoxaparin",did not reach statistical difference
same,VTE events / patients (n/N),[1]; [7],9/214
same,risk of VTE (rate),[1]; [7],(4.21%)
same,risk of VTE (rate),[1]; [8],4.21%
same,VTE events / patients (n/N),[1]; [9],9/271
same,risk of VTE (rate),[1]; [9],(3.32%)
same,risk of VTE (rate),"[1]; full-dose stratum (betrixaban 80 mg daily vs. enoxaparin 40 mg daily), through 42 days, listed as betrixaban",3.32%
same,VTE ARD (absolute risk difference) betrixaban vs. enoxaparin,[1]; [10],−5.01%
same,VTE NNT or NNH,[1]; [10],20
same,VTE RR (relative risk) betrixaban vs. enoxaparin,[1]; [10],0.40
same,VTE ARD (absolute risk difference) betrixaban vs. enoxaparin,[1]; [11],−7.20%
same,VTE NNT or NNH,[1]; [11],14
same,VTE RR (relative risk) betrixaban vs. enoxaparin,[1]; [11],0.37
same,VTE events / patients (n/N),[1]; [12],15/351
same,risk of VTE (rate),[1]; [12],(4.27%)
same,risk of VTE (rate),"[1]; mITT population, end of extended thromboprophylaxis through 42 days, listed as betrixaban",4.27%
same,VTE events / patients (n/N),[1]; [13],15/286
same,risk of VTE (rate),[1]; [13],(5.24%)
same,risk of VTE (rate),"[1]; mITT population, end of study through 77 days, listed as betrixaban",5.24%
same,VTE ARD (absolute risk difference) betrixaban vs. enoxaparin,[1]; [14],−3.68%
same,VTE NNT or NNH,[1]; [14],28
same,VTE RR (relative risk) betrixaban vs. enoxaparin,[1]; [14],0.54
same,VTE ARD (absolute risk difference) betrixaban vs. enoxaparin,[1]; [15],−5.63%
same,VTE NNT or NNH,[1]; [15],18
same,VTE RR (relative risk) betrixaban vs. enoxaparin,[1]; [15],0.48
same,reduction of VTE risk,[2]; end of extended thromboprophylaxis,23%
same,reduction of VTE risk,[2]; end of study,24%
same,effect of Pgp inhibitor on exposure of betrixaban,[3],increases the exposure
same,"rates of major bleeding, betrixaban vs. enoxaparin",[4],no difference
same,major or clinically relevant non-major bleeding events / patients (n/N),[5]; [7],11/271
same,risk of major or clinically relevant non-major bleeding (rate),[5]; [7],(4.06%)
same,risk of major or clinically relevant non-major bleeding (rate),[5]; [8],4.06%
same,major or clinically relevant non-major bleeding events / patients (n/N),[5]; [16],9/271
same,risk of major or clinically relevant non-major bleeding (rate),[5]; [16],(3.32%)
same,risk of major or clinically relevant non-major bleeding (rate),[5]; [17],3.32%
same,major or clinically relevant non-major bleeding ARD betrixaban vs. enoxaparin,[5]; [18],−0.30%
same,major or clinically relevant non-major bleeding RR betrixaban vs. enoxaparin,[5]; [18],0.92
same,major or clinically relevant non-major bleeding ARD betrixaban vs. enoxaparin,[5]; [11],0.07%
same,major or clinically relevant non-major bleeding RR betrixaban vs. enoxaparin,[5]; [11],1.02
same,major or clinically relevant non-major bleeding events / patients (n/N),[5]; [19],15/351
same,risk of major or clinically relevant non-major bleeding (rate),[5]; [19],(4.27%)
same,risk of major or clinically relevant non-major bleeding (rate),[5]; [20],4.27%
same,major or clinically relevant non-major bleeding ARD betrixaban vs. enoxaparin,[5]; [21],0.29%
same,major or clinically relevant non-major bleeding RR betrixaban vs. enoxaparin,[5]; [21],1.09
same,major or clinically relevant non-major bleeding events / patients (n/N),[5]; [22],13/351
same,risk of major or clinically relevant non-major bleeding (rate),[5]; [22],(3.70%)
same,risk of major or clinically relevant non-major bleeding (rate),[5]; [23],3.70%
same,major or clinically relevant non-major bleeding ARD betrixaban vs. enoxaparin,[5]; [24],0.58%
same,major or clinically relevant non-major bleeding RR betrixaban vs. enoxaparin,[5]; [24],1.16
same,major bleeding events / patients (n/N),[6]; [7],1/271
same,risk of major bleeding (rate),[6]; [7],(0.37%)
same,risk of major bleeding (rate),[6]; [8],0.37%
same,major bleeding events / patients (n/N),[6]; [16],0/271
same,risk of major bleeding (rate),[6]; [16],(0.00%)
same,risk of major bleeding (rate),[6]; [17],0.00%
same,major bleeding ARD betrixaban vs. enoxaparin,[6]; [18],−3.26%
same,major bleeding NNT or NNH,[6]; [18],31
same,major bleeding ARD betrixaban vs. enoxaparin,[6]; [11],−3.25%
same,major bleeding NNT or NNH,[6]; [11],31
same,major bleeding RR betrixaban vs. enoxaparin,[6]; [11],0.10
same,major bleeding events / patients (n/N),[6]; [19],5/351
same,risk of major bleeding (rate),[6]; [19],(1.42%)
same,risk of major bleeding (rate),[6]; [20],1.42%
same,major bleeding ARD betrixaban vs. enoxaparin,[6]; [21],−1.99%
same,major bleeding RR betrixaban vs. enoxaparin,[6]; [21],0.36
same,major bleeding events / patients (n/N),[6]; [22],4/351
same,risk of major bleeding (rate),[6]; [22],(1.14%)
same,risk of major bleeding (rate),[6]; [23],1.14%
same,major bleeding ARD betrixaban vs. enoxaparin,[6]; [24],−1.98%
same,major bleeding RR betrixaban vs. enoxaparin,[6]; [24],0.42
Enoxaparin [reference compound],VTE events / patients (n/N),[1]; [7],26/228
same,risk of VTE (rate),[1]; [7],(11.40%)
same,risk of VTE (rate),"[1]; full-dose stratum (betrixaban 80 mg daily vs. enoxaparin 40 mg daily), end of study through 77 days, listed as enoxaparin",11.40%
same,VTE events / patients (n/N),[1]; [9],23/276
same,risk of VTE (rate),[1]; [9],(8.33%)
same,risk of VTE (rate),"[1]; full-dose stratum (betrixaban 80 mg daily vs. enoxaparin 40 mg daily), through 42 days, listed as enoxaparin",8.33%
same,VTE events / patients (n/N),[1]; [12],28/352
same,risk of VTE (rate),[1]; [12],(7.95%)
same,risk of VTE (rate),"[1]; mITT population, end of extended thromboprophylaxis through 42 days, listed as enoxaparin",7.95%
same,VTE events / patients (n/N),[1]; [13],31/285
same,risk of VTE (rate),[1]; [13],(10.88%)
same,risk of VTE (rate),"[1]; mITT population, end of study through 77 days, listed as enoxaparin",10.88%
